Laboratory results reported in US6682898B2, “High-throughput screening assays for modulators of STAT4 activity” (Tularik Inc., priority 1998, dated 2004).
pIC50: −log10 of the molar value. Residues, ends and D or L forms follow the SMILES beside them.

Assays:
[1] = target: T1, STAT6 (Homo sapiens, UniProt P42226); experiment: STAT6 binding to phosphotyrosine receptor peptides (IC50 / binding affinity)
T1 sequence (P42226 1-847): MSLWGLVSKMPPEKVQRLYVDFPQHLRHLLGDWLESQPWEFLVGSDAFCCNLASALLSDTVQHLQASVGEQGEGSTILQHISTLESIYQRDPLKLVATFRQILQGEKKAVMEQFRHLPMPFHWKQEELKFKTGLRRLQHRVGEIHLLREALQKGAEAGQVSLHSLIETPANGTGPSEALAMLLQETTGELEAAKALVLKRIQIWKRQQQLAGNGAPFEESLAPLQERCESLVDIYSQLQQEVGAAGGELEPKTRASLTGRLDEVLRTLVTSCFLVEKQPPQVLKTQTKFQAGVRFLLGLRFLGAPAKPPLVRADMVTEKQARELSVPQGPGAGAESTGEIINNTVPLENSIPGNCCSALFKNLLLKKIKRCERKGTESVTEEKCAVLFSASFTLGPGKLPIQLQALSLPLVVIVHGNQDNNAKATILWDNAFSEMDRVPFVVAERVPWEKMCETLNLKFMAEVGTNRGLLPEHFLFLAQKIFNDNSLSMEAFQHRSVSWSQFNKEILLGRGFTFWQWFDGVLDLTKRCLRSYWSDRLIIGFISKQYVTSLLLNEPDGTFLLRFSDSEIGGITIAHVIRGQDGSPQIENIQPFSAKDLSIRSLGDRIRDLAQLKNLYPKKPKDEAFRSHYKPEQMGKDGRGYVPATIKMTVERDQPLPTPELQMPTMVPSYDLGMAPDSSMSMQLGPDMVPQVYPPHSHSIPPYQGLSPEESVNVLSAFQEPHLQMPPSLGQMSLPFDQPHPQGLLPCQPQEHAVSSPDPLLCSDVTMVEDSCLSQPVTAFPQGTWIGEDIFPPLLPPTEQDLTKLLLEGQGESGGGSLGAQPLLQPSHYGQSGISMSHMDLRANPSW

[2] = target: T1, STAT6; experiment: Chemiluminescence binding assay, signal to noise, STAT6
Description: The assays of the invention can be conducted as an ELISA assay, using a 96-well microplate format or a larger format if desired. In one embodiment, a phosphotyrosine-containing receptor peptide is incubated with a protein which contains an SH2 domain (e.g., a STAT polypeptide) to provide opportunity for the SH2 domain containing protein to bind the peptide. The peptide is preferably bound to a tag, e.g., biotin, at the amino terminus of the peptide. There can be a spacer between the tag and the peptide. The solution is placed in wells of a 96-well microplate that are coated with a tag binder, e.g., streptavidin. Reduction of background is achieved by incubating, in a separate reaction, a primary antibody specific for the SH2 domain containing protein and a secondary antibody specific for the first antibody which is to bind to the SH2 domain containing protein. The secondary antibody has conjugated to it a substrate for detection. The antibodies bind and form a binding pair of antibodies Ab1 and Ab2. Ab1 remains available to bind the SH2 domain containing protein for which it is specific. Ab2 remains conjugated to a substrate for chemiluminescence detection later.
The solution containing binding pairs of primary and secondary antibodies bound together is then added to the microwells that already contain the bound streptavidin, biotinylated receptor peptide and an SH2 domain containing protein bound to the receptor peptide. […]
An alternate method for conducting the assay involves preincubating the SH2 domain containing protein with the primary antibody that is specific for the SH2 domain containing protein. […] After allowing time for the SH2-antibody complex to bind the biotinylated peptide bound to streptavidin, a second antibody specific for the first antibody is added, and the presence of the second antibody is detected as before, using a chemiluminescence reaction with either alkaline phosphatase detection or horse radish peroxidase detection. […]

[3] = target: T2, STAT6 (UniProt P42226 1-847, limits assumed); experiment: binding affinity of the phosphorylated receptor peptide for STAT6; method not stated at the table (paragraph 32 speaks of IC50)
T2 construct: also called STAT6 polypeptide
T2 sequence (looked up): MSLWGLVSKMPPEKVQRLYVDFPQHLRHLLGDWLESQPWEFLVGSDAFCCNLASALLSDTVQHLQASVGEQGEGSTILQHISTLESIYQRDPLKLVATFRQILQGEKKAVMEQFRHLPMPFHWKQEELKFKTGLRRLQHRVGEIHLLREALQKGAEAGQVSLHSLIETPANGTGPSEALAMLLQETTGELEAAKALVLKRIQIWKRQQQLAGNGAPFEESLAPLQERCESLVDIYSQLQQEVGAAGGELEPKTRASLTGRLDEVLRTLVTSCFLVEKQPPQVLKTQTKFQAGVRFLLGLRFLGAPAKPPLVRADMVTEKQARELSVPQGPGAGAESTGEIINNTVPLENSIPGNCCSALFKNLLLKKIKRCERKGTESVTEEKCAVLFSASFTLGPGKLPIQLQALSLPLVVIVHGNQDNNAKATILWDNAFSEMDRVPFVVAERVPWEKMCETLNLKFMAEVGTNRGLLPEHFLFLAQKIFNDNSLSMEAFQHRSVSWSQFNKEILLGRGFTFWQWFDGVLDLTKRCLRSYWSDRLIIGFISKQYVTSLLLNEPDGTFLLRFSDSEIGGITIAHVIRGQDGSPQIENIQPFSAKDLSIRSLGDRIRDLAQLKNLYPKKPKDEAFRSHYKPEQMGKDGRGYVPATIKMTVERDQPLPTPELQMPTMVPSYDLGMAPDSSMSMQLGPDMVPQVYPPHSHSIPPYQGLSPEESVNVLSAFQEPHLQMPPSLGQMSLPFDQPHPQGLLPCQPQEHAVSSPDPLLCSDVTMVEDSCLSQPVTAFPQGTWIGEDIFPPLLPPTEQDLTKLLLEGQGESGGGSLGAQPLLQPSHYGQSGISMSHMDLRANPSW

Compound | pIC50 [1] | other results
CC(=O)N[C@@H](Cc1ccc(OP(=O)(O)O)cc1)C(=O)N[C@@H](CCCCN)C(=O)N1CCC[C@H]1C(=O)N[C@@H](Cc1ccccc1)C(N)=O [Ac-Y^PKPF-NH2, reference compound] (HELM PEPTIDE1{[ac].[O=C([C@H](Cc1ccc(OP(=O)(O)O)cc1)N[*:1])[*:2]].K.P.F.[am]}$$$$V2.0) | 4.66 | 
CC(=O)N[C@@H](Cc1ccc(OP(=O)(O)O)cc1)C(=O)N[C@H](C(=O)N1CCC[C@H]1C(=O)N[C@@H](Cc1c[nH]c2ccccc12)C(N)=O)C(C)C [Ac-Y^PVPW-NH2] (HELM PEPTIDE1{[ac].[O=C([C@H](Cc1ccc(OP(=O)(O)O)cc1)N[*:1])[*:2]].V.P.W.[am]}$$$$V2.0) | 5.92 | 
CC(=O)N[C@@H](Cc1ccc(OP(=O)(O)O)cc1)C(=O)N[C@H](C(=O)N1CCC[C@H]1C(=O)N[C@@H](Cc1c[nH]c2ccccc12)C(=O)N[C@@H](CCC(N)=O)C(N)=O)C(C)C [Ac-Y^PVPWQ-NH2] (HELM PEPTIDE1{[ac].[O=C([C@H](Cc1ccc(OP(=O)(O)O)cc1)N[*:1])[*:2]].V.P.W.Q.[am]}$$$$V2.0) | 5.82 | 
CC[C@H](C)[C@H](NC(=O)[C@H](CC(C)C)NC(=O)[C@H](CC(=O)O)NC(=O)[C@H](CCC(N)=O)NC(=O)[C@H](Cc1c[nH]c2ccccc12)NC(=O)[C@@H]1CCCN1C(=O)[C@@H](NC(=O)[C@H](Cc1ccc(OP(=O)(O)O)cc1)NC(=O)CNC(=O)[C@@H](N)CCC(=O)O)C(C)C)C(=O)O [EGY^PVPWQDLI] (HELM PEPTIDE1{E.G.[O=C([C@H](Cc1ccc(OP(=O)(O)O)cc1)N[*:1])[*:2]].V.P.W.Q.D.L.I}$$$$V2.0) | 6.21 | signal relative to background, STAT6 ([2]; Ab1/Ab2 preincubation): + + + + +; signal relative to background, STAT6 ([2]; STAT4/Ab preincubation (so in the source)): + + + + +; signal relative to background, STAT6 ([2]; Standard assay): + +
CC(C)C[C@H](NC(=O)[C@@H](NC(=O)[C@H](Cc1c[nH]cn1)NC(=O)[C@@H]1CCCN1C(=O)[C@H](CCCCN)NC(=O)[C@H](CC(=O)O)NC(=O)[C@H](Cc1ccc(OP(=O)(O)O)cc1)NC(=O)CNC(=O)[C@H](Cc1ccccc1)NC(=O)[C@@H](N)CO)C(C)C)C(=O)O [SFGY*DKPHVL, reference compound] (HELM PEPTIDE1{S.F.G.[O=C([C@H](Cc1ccc(OP(=O)(O)O)cc1)N[*:1])[*:2]].D.K.P.H.V.L}$$$$V2.0) | < 4.00 | 
Ac-Y^PKPF-NH2 (peptide) |  | BINDING AFFINITY [3]: 22 µM
Ac-Y^PVPW-NH2 (peptide) |  | BINDING AFFINITY [3]: 1.2 µM
